Source: patent publication US20250171438A1 (Agios Pharmaceuticals, Inc., priority 2022, published 2025)

Each compound was assayed against T1, human PAH with the R408W mutation (Homo sapiens, UniProt P00439, R408W) (assay: Cell Based Phenylalanine Flux Assay). Details: A375 cells expressing human R408W PAH; 24 hrs compound incubation; 13C-Tyrosine by LC-MS; average where tested multiple times; read-out: AC50.
T1 construct: expressed in transfected cells
T1 sequence (P00439 1-452 R408W): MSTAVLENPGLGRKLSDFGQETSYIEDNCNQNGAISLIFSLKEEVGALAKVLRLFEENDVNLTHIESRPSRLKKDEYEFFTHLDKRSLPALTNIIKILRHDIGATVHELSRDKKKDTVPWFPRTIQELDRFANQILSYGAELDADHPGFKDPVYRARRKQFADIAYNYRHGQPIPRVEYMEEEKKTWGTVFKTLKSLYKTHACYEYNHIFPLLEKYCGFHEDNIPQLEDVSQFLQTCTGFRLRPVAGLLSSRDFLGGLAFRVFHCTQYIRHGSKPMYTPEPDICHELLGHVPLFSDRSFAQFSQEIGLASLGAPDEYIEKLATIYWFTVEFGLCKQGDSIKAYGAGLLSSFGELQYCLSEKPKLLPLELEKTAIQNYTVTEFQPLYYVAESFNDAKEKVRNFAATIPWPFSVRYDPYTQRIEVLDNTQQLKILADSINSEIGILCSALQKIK
Description: Compounds were resuspended in DMSO, and 2-fold serial dilutions were performed to generate a 10-point dose curve. Compounds were added to plated cells in a total volume of 100 pal, and a final DMSO concentration of 0.5%. Each compound was tested in duplicate. Following compound addition, cells were placed in a 5% CO2, 37° C. tissue culture incubator for 24 hrs. After the incubation period, 20 μM sepiapterin and 800 μM 13C9,15N-Phenylalanine were added. After 4 hours, cell media was removed. An aliquot of 10 μl of cell media was combined with 200 μl of extraction buffer (80% acetonitrile/20% H2O) for each well. Determination of ^13C-Tyrosine concentration was assessed by liquid chromatography mass spectrometry.
Where a compound was tested multiple times, the average value of the tests is reported.

Compound | AC50
O=C(c1cnn2cc(C3CC3)ccc12)N1CCc2[nH]cnc2[C@H]1c1nc2ccccc2s1 [Example 1191] | 500 to 1000 nM
O=C(c1cnn2cc(C3CC3)ccc12)N1CCc2[nH]cnc2[C@@H]1c1nc2ccccc2s1 [Example 1192, (R)-(4-(benzo[d]thiazol-2-yl)-6,7-dihydro-1H-imidazo[4,5-c]pyridin-5(4H)-yl)(6-cyclopropylpyrazolo[1,5-a]pyridin-3-yl)methanone] | 1000 to 5000 nM
O=C(c1cnn2ccc(Cl)cc12)N1CCc2[nH]cnc2[C@H]1c1nc2c(F)cccc2s1 [Example 1195] | < 500 nM
O=C(c1cnn2ccc(Cl)cc12)N1CCc2[nH]cnc2[C@@H]1c1nc2c(F)cccc2s1 [Example 1196, (R)-(5-chloropyrazolo[1,5-a]pyridin-3-yl)(4-(4-fluorobenzo[d]thiazol-2-yl)-6,7-dihydro-1H-imidazo[4,5-c]pyridin-5(4H)-yl)methanone] | 1000 to 5000 nM
COc1ccn2ncc(C(=O)N3CCc4[nH]cnc4[C@H]3c3nc4c(F)cccc4s3)c2c1 [Example 1197, (S)-(4-(4-fluorobenzo[d]thiazol-2-yl)-6,7-dihydro-1H-imidazo[4,5-c]pyridin-5(4H)-yl)(5-methoxypyrazolo[1,5-a]pyridin-3-yl)methanone] | 500 to 1000 nM
COc1ccn2ncc(C(=O)N3CCc4[nH]cnc4[C@@H]3c3nc4c(F)cccc4s3)c2c1 [Example 1198, (R)-(4-(4-fluorobenzo[d]thiazol-2-yl)-6,7-dihydro-1H-imidazo[4,5-c]pyridin-5(4H)-yl)(5-methoxypyrazolo[1,5-a]pyridin-3-yl)methanone] | 1000 to 5000 nM
O=C(c1cnc(-c2ccccc2)o1)N1CCc2[nH]cnc2[C@H]1c1nc2ccccc2s1 [Example 1207] | < 500 nM
O=C(c1cnc(-c2ccccc2)o1)N1CCc2[nH]cnc2[C@@H]1c1nc2ccccc2s1 [Example 1208, (R)-(4-(benzo[d]thiazol-2-yl)-6,7-dihydro-1H-imidazo[4,5-c]pyridin-5(4H)-yl)(2-phenyloxazol-5-yl)methanone] | 1000 to 5000 nM
O=C(c1cnn2cc(-c3ccccc3)ccc12)N1CCc2[nH]cnc2[C@H]1c1nc2ccccc2s1 [Example 1209] | 1000 to 5000 nM
O=C(c1cnn2cc(-c3ccccc3)ccc12)N1CCc2[nH]cnc2[C@@H]1c1nc2ccccc2s1 [Example 1210, (R)-(4-(benzo[d]thiazol-2-yl)-6,7-dihydro-1H-imidazo[4,5-c]pyridin-5(4H)-yl)(6-phenylpyrazolo[1,5-a]pyridin-3-yl)methanone] | > 5000 nM
O=C(c1cnn2cc(-c3ccccn3)ccc12)N1CCc2[nH]cnc2[C@H]1c1nc2ccccc2s1 [Example 1211] | 500 to 1000 nM
O=C(c1cnn2cc(-c3ccccn3)ccc12)N1CCc2[nH]cnc2[C@@H]1c1nc2ccccc2s1 [Example 1212, (R)-(4-(benzo[d]thiazol-2-yl)-6,7-dihydro-1H-imidazo[4,5-c]pyridin-5(4H)-yl)(6-(pyridin-2-yl)pyrazolo[1,5-a]pyridin-3-yl)methanone] | > 5000 nM
Cn1cc(-c2ccc3c(C(=O)N4CCc5[nH]cnc5[C@H]4c4nc5ccccc5s4)cnn3c2)cn1 [Example 1213] | < 500 nM
Cn1cc(-c2ccc3c(C(=O)N4CCc5[nH]cnc5[C@@H]4c4nc5ccccc5s4)cnn3c2)cn1 [Example 1214, (R)-(4-(benzo[d]thiazol-2-yl)-6,7-dihydro-1H-imidazo[4,5-c]pyridin-5(4H)-yl)(6-(1-methyl-1H-pyrazol-4-yl)pyrazolo[1,5-a]pyridin-3-yl)methanone] | 1000 to 5000 nM
O=C(c1cnn2ccccc12)N1CCc2[nH]cnc2[C@H]1c1nc2c(Cl)cccc2s1 [Example 1221, (S)-(4-(4-chlorobenzo[d]thiazol-2-yl)-6,7-dihydro-1H-imidazo[4,5-c]pyridin-5(4H)-yl)(pyrazolo[1,5-a]pyridin-3-yl)methanone] | < 500 nM
O=C(c1cnn2ccccc12)N1CCc2[nH]cnc2[C@@H]1c1nc2c(Cl)cccc2s1 [Example 1222, (R)-(4-(4-chlorobenzo[d]thiazol-2-yl)-6,7-dihydro-1H-imidazo[4,5-c]pyridin-5(4H)-yl)(pyrazolo[1,5-a]pyridin-3-yl)methanone] | 1000 to 5000 nM

The next lines start with the values.

AC50 | Compound
1000 to 5000 nM | O=C(c1cncs1)N1CCc2[nH]cnc2[C@H]1c1nc2cc(F)ccc2s1 [Example 1193, (S)-(4-(5-fluorobenzo[d]thiazol-2-yl)-6,7-dihydro-1H-imidazo[4,5-c]pyridin-5(4H)-yl)(thiazol-5-yl)methanone]
> 5000 nM | O=C(c1cncs1)N1CCc2[nH]cnc2[C@@H]1c1nc2cc(F)ccc2s1 [Example 1194, (R)-(4-(5-fluorobenzo[d]thiazol-2-yl)-6,7-dihydro-1H-imidazo[4,5-c]pyridin-5(4H)-yl)(thiazol-5-yl)methanone]
1000 to 5000 nM | O=C(c1nccs1)N1CCc2[nH]cnc2[C@@H]1c1nc2cccc(Br)c2s1 [Example 1199, (R)-(4-(7-bromobenzo[d]thiazol-2-yl)-6,7-dihydro-1H-imidazo[4,5-c]pyridin-5(4H)-yl)(thiazol-2-yl)methanone]
500 to 1000 nM | O=C(c1nccs1)N1CCc2[nH]cnc2[C@H]1c1nc2cccc(Br)c2s1 [Example 1200, (S)-(4-(7-bromobenzo[d]thiazol-2-yl)-6,7-dihydro-1H-imidazo[4,5-c]pyridin-5(4H)-yl)(thiazol-2-yl)methanone]
1000 to 5000 nM | O=C(c1nccs1)N1CCc2[nH]cnc2[C@H]1c1nc2c(Cl)cccc2s1 [Example 1201, (S)-(4-(4-chlorobenzo[d]thiazol-2-yl)-6,7-dihydro-1H-imidazo[4,5-c]pyridin-5(4H)-yl)(thiazol-2-yl)methanone]
1000 to 5000 nM | O=C(c1nccs1)N1CCc2[nH]cnc2[C@@H]1c1nc2c(Cl)cccc2s1 [Example 1202, (R)-(4-(4-chlorobenzo[d]thiazol-2-yl)-6,7-dihydro-1H-imidazo[4,5-c]pyridin-5(4H)-yl)(thiazol-2-yl)methanone]
500 to 1000 nM | O=C(c1cnc(-c2ccccc2)s1)N1CCc2[nH]cnc2[C@H]1c1nc2ccccc2s1 [Example 1203]
1000 to 5000 nM | O=C(c1cnc(-c2ccccc2)s1)N1CCc2[nH]cnc2[C@@H]1c1nc2ccccc2s1 [Example 1204, (R)-(4-(benzo[d]thiazol-2-yl)-6,7-dihydro-1H-imidazo[4,5-c]pyridin-5(4H)-yl)(2-phenylthiazol-5-yl)methanone]
< 500 nM | O=C(c1cnc(-c2ccccn2)s1)N1CCc2[nH]cnc2[C@H]1c1nc2ccccc2s1 [Example 1205]
1000 to 5000 nM | O=C(c1cnc(-c2ccccn2)s1)N1CCc2[nH]cnc2[C@@H]1c1nc2ccccc2s1 [Example 1206, (R)-(4-(benzo[d]thiazol-2-yl)-6,7-dihydro-1H-imidazo[4,5-c]pyridin-5(4H)-yl)(2-(pyridin-2-yl)thiazol-5-yl)methanone]
< 500 nM | O=C(c1cnn2cc(F)ccc12)N1CCc2[nH]cnc2[C@H]1c1nc2c(F)cccc2s1 [Example 1215, (S)-(4-(4-fluorobenzo[d]thiazol-2-yl)-6,7-dihydro-1H-imidazo[4,5-c]pyridin-5(4H)-yl)(6-fluoropyrazolo[1,5-a]pyridin-3-yl)methanone]
1000 to 5000 nM | O=C(c1cnn2cc(F)ccc12)N1CCc2[nH]cnc2[C@@H]1c1nc2c(F)cccc2s1 [Example 1216, (R)-(4-(4-fluorobenzo[d]thiazol-2-yl)-6,7-dihydro-1H-imidazo[4,5-c]pyridin-5(4H)-yl)(6-fluoropyrazolo[1,5-a]pyridin-3-yl)methanone]
500 to 1000 nM | O=C(c1cncs1)N1CCc2[nH]cnc2[C@H]1c1nc2c(F)cccc2s1 [Example 1217, (S)-(4-(4-fluorobenzo[d]thiazol-2-yl)-6,7-dihydro-1H-imidazo[4,5-c]pyridin-5(4H)-yl)(thiazol-5-yl)methanone]
1000 to 5000 nM | O=C(c1cncs1)N1CCc2[nH]cnc2[C@@H]1c1nc2c(F)cccc2s1 [Example 1218, (R)-(4-(4-fluorobenzo[d]thiazol-2-yl)-6,7-dihydro-1H-imidazo[4,5-c]pyridin-5(4H)-yl)(thiazol-5-yl)methanone]
< 500 nM | O=C(c1ncc(Cl)s1)N1CCc2[nH]cnc2[C@H]1c1nc2c(F)cccc2s1 [Example 1219]
1000 to 5000 nM | O=C(c1ncc(Cl)s1)N1CCc2[nH]cnc2[C@@H]1c1nc2c(F)cccc2s1 [Example 1220, (R)-(5-chlorothiazol-2-yl)(4-(4-fluorobenzo[d]thiazol-2-yl)-6,7-dihydro-1H-imidazo[4,5-c]pyridin-5(4H)-yl)methanone]
500 to 1000 nM | O=C(c1cnco1)N1CCc2[nH]cnc2[C@H]1c1nc2c(F)cccc2s1 [Example 1223, (S)-(4-(4-fluorobenzo[d]thiazol-2-yl)-6,7-dihydro-1H-imidazo[4,5-c]pyridin-5(4H)-yl)(oxazol-5-yl)methanone]
1000 to 5000 nM | O=C(c1cnco1)N1CCc2[nH]cnc2[C@@H]1c1nc2c(F)cccc2s1 [Example 1224, (R)-(4-(4-fluorobenzo[d]thiazol-2-yl)-6,7-dihydro-1H-imidazo[4,5-c]pyridin-5(4H)-yl)(oxazol-5-yl)methanone]
500 to 1000 nM | O=C(c1ncco1)N1CCc2[nH]cnc2[C@H]1c1nc2c(F)cccc2s1 [Example 1225, (S)-(4-(4-fluorobenzo[d]thiazol-2-yl)-6,7-dihydro-1H-imidazo[4,5-c]pyridin-5(4H)-yl)(oxazol-2-yl)methanone]
> 5000 nM | O=C(c1ncco1)N1CCc2[nH]cnc2[C@@H]1c1nc2c(F)cccc2s1 [Example 1226, (R)-(4-(4-fluorobenzo[d]thiazol-2-yl)-6,7-dihydro-1H-imidazo[4,5-c]pyridin-5(4H)-yl)(oxazol-2-yl)methanone]
